Where two headings read alike, the source gives them in different places.
Key:
HCT116 cells = experiment: Antiproliferation assay, Cell Titer Glo, 72 hours; format: cell-based
Summary of the method: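 HCT116 cells seeded at 750 cells/well in McCoy's 5A with 10% FBS and exposed to four-fold compound dilution series for 72 h at 37 °C, 5% CO2. Viability by CellTiter-Glo luminescence, quadruplicate; IC50 by non-linear regression.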

CDK16/CycY = CDK16/CycY (Homo sapiens (Human), UniProt Q00536); experiment: Lanthascreen Eu kinase binding assay for CDK16/CycY
CDK16/CycY, sequence (Q00536 whole entry): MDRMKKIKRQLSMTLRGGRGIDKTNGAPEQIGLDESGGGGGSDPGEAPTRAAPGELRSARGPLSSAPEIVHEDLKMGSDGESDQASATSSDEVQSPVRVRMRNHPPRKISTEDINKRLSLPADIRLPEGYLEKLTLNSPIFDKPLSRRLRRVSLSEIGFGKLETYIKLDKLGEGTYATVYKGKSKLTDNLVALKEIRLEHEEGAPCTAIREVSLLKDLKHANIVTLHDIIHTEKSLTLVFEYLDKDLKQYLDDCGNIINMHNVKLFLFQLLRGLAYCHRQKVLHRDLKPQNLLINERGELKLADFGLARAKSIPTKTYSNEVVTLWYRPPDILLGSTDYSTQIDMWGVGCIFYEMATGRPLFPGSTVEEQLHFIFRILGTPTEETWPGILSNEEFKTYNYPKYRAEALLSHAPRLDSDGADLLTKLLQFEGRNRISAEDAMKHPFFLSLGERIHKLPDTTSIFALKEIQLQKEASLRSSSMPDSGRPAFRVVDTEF
CDK16/CycY, sequence (Q8ND76 whole entry partner): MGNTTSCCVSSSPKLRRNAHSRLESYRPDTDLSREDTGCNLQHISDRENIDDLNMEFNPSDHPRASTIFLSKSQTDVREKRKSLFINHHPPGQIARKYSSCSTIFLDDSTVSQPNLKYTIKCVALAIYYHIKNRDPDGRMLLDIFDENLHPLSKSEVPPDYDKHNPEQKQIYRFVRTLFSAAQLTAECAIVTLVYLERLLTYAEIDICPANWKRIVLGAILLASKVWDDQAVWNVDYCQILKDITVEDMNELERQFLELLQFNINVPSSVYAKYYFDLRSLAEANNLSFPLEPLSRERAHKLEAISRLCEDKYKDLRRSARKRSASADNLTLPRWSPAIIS
Description: Lanthascreen Eu kinase binding assays were conducted for CDK16/CycY at Life Technologies.

CDK2/CycA = CDK2/CycA (Homo sapiens (Human), UniProt P24941); experiment: Z'LYTE kinase assay for CDK2/CycA at Km ATP; format: biochemical
Cdk14/CycY = Cdk14/CycY (Homo sapiens (Human), UniProt O94921); experiment: Lanthascreen Eu kinase binding assay for Cdk14/CycY with 30 minute pre-incubation; settings: 30 minute pre-incubation of kinase with compound; read-out: IC50 CDK14 binding by Lanthascreen
Cdk14/CycY, sequence (O94921 whole entry): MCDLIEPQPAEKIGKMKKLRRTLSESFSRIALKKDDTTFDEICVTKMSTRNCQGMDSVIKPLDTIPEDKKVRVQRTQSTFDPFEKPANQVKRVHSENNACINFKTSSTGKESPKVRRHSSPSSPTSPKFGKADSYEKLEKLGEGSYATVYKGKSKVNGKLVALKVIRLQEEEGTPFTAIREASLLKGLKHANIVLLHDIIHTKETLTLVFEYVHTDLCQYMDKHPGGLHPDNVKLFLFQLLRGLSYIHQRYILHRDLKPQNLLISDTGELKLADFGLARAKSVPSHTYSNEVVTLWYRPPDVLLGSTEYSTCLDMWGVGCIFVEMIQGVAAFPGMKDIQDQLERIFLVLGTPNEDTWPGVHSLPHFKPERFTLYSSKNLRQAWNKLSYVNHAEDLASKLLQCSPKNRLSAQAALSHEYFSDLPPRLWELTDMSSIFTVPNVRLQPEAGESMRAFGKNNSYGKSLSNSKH
Cdk14/CycY, sequence (Q8ND76 whole entry partner): as the sequence (Q8ND76 whole entry partner) above
Description: Lanthascreen Eu kinase binding assays were conducted for Cdk14/CycY largely as performed in the commercial assay service by Life Technologies, but included a 30 minute pre-incubation step of the kinase with candidate compounds to facilitate covalent bond formation.

[1] = read-out: IC50 CDK16 Lanthascreen binding
[2] = read-out: IC50 CDK2 Z′LYTE kinase assay

Row | SMILES | IC50 (HCT116 cells) | IC50 (HCT116 cells; Homo sapiens, HCT-116, 72 h) | IC50 (CDK16/CycY; [1]) | IC50 (CDK2/CycA; [2]) | IC50 (Cdk14/CycY) | IC50 (CDK16/CycY; read-out: CDK16 IC50) | IC50 (CDK2/CycA; read-out: CDK2 IC50)
1 | CCC(=O)Nc1cccc(CN2CCC(NC(=O)c3n[nH]cc3NC(=O)c3c(Cl)cccc3Cl)CC2)c1 [FMF-04-172-2, 4-(2,6-dichlorobenzamido)-N-(1-(3-propionamidobenzyl)piperidin-4-yl)-1H-pyrazole-3-carboxamide] | 173 nM | 123 nM | 29.4 nM | 19.6 nM |  |  | 
2 | CC(C)c1[nH]nc(C(=O)NC2CCN(S(=O)(=O)c3cccc(NC(=O)/C=C/CN(C)C)c3)CC2)c1NC(=O)c1c(Cl)cccc1Cl [FMF-04-199-1, (E)-4-(2,6-dichlorobenzamido)-N-(1-((3-(4-(dimethylamino)but-2-enamido)phenyl)sulfonyl)piperidin-4-yl)-5-isopropyl-1H-pyrazole-3-carboxamide] |  | > 10000 nM | 8900 nM | > 10000 nM | 1000 nM |  | 
3 | CCC(=O)Nc1cccc(S(=O)(=O)N2CCC(NC(=O)c3n[nH]cc3NC(=O)c3c(Cl)cccc3OC)CC2)c1 [FMF-05-033-1, 4-(2-chloro-6-methoxybenzamido)-N-(1-((3-propionamidophenyl)sulfonyl)piperidin-4-yl)-1H-pyrazole-3-carboxamide] |  | 172 nM | 3.4 nM | 3 nM |  |  | 
4 | COc1cccc(Cl)c1C(=O)Nc1c[nH]nc1C(=O)NC1CCN(S(=O)(=O)c2cccc(NC(=O)/C=C/CN(C)C)c2)CC1 [FMF-04-107-2, (E)-4-(2-chloro-6-methoxybenzamido)-N-(1-((3-(4-(dimethylamino)but-2-enamido)phenyl)sulfonyl)piperidin-4-yl)-1H-pyrazole-3-carboxamide] | 524 nM | 524 nM | 2.3 nM | 4.5 nM |  | 2.3 nM | 4.5 nM
5 | CCC(=O)Nc1cccc(S(=O)(=O)N2CCC(NC(=O)c3n[nH]cc3NC(=O)c3c(Cl)cccc3Cl)CC2)c1 [FMF-04-060-1, 4-(2,6-dichlorobenzamido)-N-(1-((3-propionamidophenyl)sulfonyl)piperidin-4-yl)-1H-pyrazole-3-carboxamide] |  | 76 nM | 2.3 nM | 3 nM |  |  | 
6 | CN(C)C/C=C/C(=O)Nc1cccc(CN2CCC(NC(=O)c3n[nH]cc3NC(=O)c3c(Cl)cccc3Cl)CC2)c1 [FMF-03-200-2] | 2.1 nM | 2.2 nM | 10.2 nM | 26 nM |  |  | 
7 | CN(C)C/C=C/C(=O)Nc1cccc(S(=O)(=O)N2CCC(NC(=O)c3n[nH]cc3NC(=O)C3CCC(F)(F)CC3)CC2)c1 [FMF-05-116-1, (E)-4-(4,4-difluorocyclohexane-1-carboxamido)-N-(1-((3-(4-(dimethylamino)but-2-enamido)phenyl)sulfonyl)piperidin-4-yl)-1H-pyrazole-3-carboxamide] |  | 8200 nM | 140 nM | 51.5 nM |  |  | 
8 | CN(C)C/C=C/C(=O)Nc1cccc(S(=O)(=O)N2CCC(NC(=O)c3n[nH]cc3NC(=O)c3c(Cl)cccc3Cl)CC2)c1 [FMF-03-198-2, (E)-4-(2,6-dichlorobenzamido)-N-(1-((3-(4-(dimethylamino)but-2-enamido)phenyl)sulfonyl)piperidin-4-yl)-1H-pyrazole-3-carboxamide] |  |  | 0.9 nM | 0.9 nM |  |  | 
9 | C=CC(=O)Nc1ccc(C(=O)N2CCC(NC(=O)c3n[nH]cc3NC(=O)c3c(Cl)cccc3Cl)CC2)cc1 [FMF-03-186-1, N-(1-(4-acrylamidobenzoyl)piperidin-4-yl)-4-(2,6-dichlorobenzamido)-1H-pyrazole-3-carboxamide] |  | 42 nM |  |  | 126 nM |  | 
10 | C=CC(=O)Nc1ccc(S(=O)(=O)N2CCC[C@@H](NC(=O)c3n[nH]cc3NC(=O)c3c(Cl)cccc3Cl)C2)cc1 [FMF-04-056-1, (R)—N-(1-((4-acrylamidophenyl)sulfonyl)piperidin-3-yl)-4-(2,6-dichlorobenzamido)-1H-pyrazole-3-carboxamide] |  | > 10000 nM |  |  | > 1000 nM |  | 
11 | C=CC(=O)Nc1cccc(CN2CCC(NC(=O)c3n[nH]cc3NC(=O)c3c(F)cc(F)cc3F)CC2)c1 [FMF-04-200-1, N-(1-(3-acrylamidobenzyl)piperidin-4-yl)-4-(2,4,6-trifluorobenzamido)-1H-pyrazole-3-carboxamide] |  | 1.9 nM |  |  | 31 nM |  | 
12 | C=CC(=O)N1CCC[C@@H](NC(=O)c2n[nH]cc2NC(=O)c2c(Cl)cccc2Cl)C1 [FMF-03-183-1, (R)—N-(1-acryloylpiperidin-3-yl)-4-(2,6-dichlorobenzamido)-1H-pyrazole-3-carboxamide] |  | 39 nM |  |  | 569 nM |  | 
13 | C=CC(=O)Nc1cccc(CN2CCC(NC(=O)c3n[nH]cc3NC(=O)c3c(Cl)cc(Cl)cc3Cl)CC2)c1 [FMF-04-158-1, N-(1-(3-acrylamidobenzyl)piperidin-4-yl)-4-(2,4,6-trichlorobenzamido)-1H-pyrazole-3-carboxamide] |  | 11 nM |  |  | 198 nM |  | 
14 | C=CC(=O)Nc1cccc(NC(=O)c2n[nH]cc2NC(=O)c2c(Cl)cccc2Cl)c1 [FMF-03-188-1, N-(3-acrylamidophenyl)-4-(2,6-dichlorobenzamido)-1H-pyrazole-3-carboxamide] |  | 169 nM |  |  | > 1000 nM |  | 
15 | C=CC(=O)Nc1cccc(S(=O)(=O)N2CCC(NC(=O)c3n[nH]c(C)c3NC(=O)c3c(Cl)cccc3Cl)CC2)c1 [FMF-04-181-1, N-(1-((3-acrylamidophenyl)sulfonyl)piperidin-4-yl)-4-(2,6-dichlorobenzamido)-5-methyl-1H-pyrazole-3-carboxamide] |  | > 10000 nM |  |  | > 1000 nM |  | 
16 | CN(C)C/C=C/C(=O)Nc1cccc(N2CC[C@H](NC(=O)c3n[nH]cc3NC(=O)c3c(Cl)cccc3Cl)C2)c1 [FMF-05-086-2, (S,E)-4-(2,6-dichlorobenzamido)-N-(1-(3-(4-(dimethylamino)but-2-enamido)phenyl)pyrrolidin-3-yl)-1H-pyrazole-3-carboxamide] |  | > 10000 nM |  |  | 218 nM |  | 
17 | C=CC(=O)Nc1ccc(C(=O)Nc2ccc(NC(=O)c3n[nH]cc3NC(=O)c3c(Cl)cccc3Cl)cc2)cc1 [FMF-04-012-1] |  | 8 nM |  |  | 169 nM |  | 
18 | CN(C)C/C=C/C(=O)Nc1cccc(NC(=O)c2n[nH]cc2NC(=O)c2c(Cl)cccc2Cl)c1 [FMF-03-188-2, (E)-4-(2,6-dichlorobenzamido)-N-(3-(4-(dimethylamino)but-2-enamido)phenyl)-1H-pyrazole-3-carboxamide] |  | 723 nM |  |  | 88 nM |  | 
19 | COc1cccc(Cl)c1C(=O)Nc1c[nH]nc1C(=O)NC1CCN(Cc2cccc(NC(=O)/C=C/CN(C)C)c2)CC1 [FMF-05-032-1, (E)-4-(2-chloro-6-methoxybenzamido)-N-(1-(3-(4-(dimethylamino)but-2-enamido)benzyl)piperidin-4-yl)-1H-pyrazole-3-carboxamide] |  | 115 nM | 8.2 nM | 36 nM |  | 8.2 nM | 36 nM
20 | C=CC(=O)Nc1cccc(N2CC[C@@H](NC(=O)c3n[nH]cc3NC(=O)c3c(Cl)cccc3Cl)C2)c1 [FMF-05-087-1, (R)—N-(1-(3-acrylamidophenyl)pyrrolidin-3-yl)-4-(2,6-dichlorobenzamido)-1H-pyrazole-3-carboxamide] | 22 nM |  |  |  | 1100 nM |  | 
21 | C=CC(=O)Nc1cccc(CN2CC[C@@H](NC(=O)c3n[nH]cc3NC(=O)c3c(Cl)cccc3Cl)C2)c1 [FMF-05-071-1, (R)—N-(1-(3-acrylamidobenzyl)pyrrolidin-3-yl)-4-(2,6-dichlorobenzamido)-1H-pyrazole-3-carboxamide] |  | < 1 nM |  |  | 282 nM |  | 
22 | C=CC(=O)Nc1ccc(N2CCC(NC(=O)c3n[nH]cc3NC(=O)c3c(Cl)cccc3Cl)CC2)cc1 [FMF-05-073-1, N-(1-(4-acrylamidophenyl)piperidin-4-yl)-4-(2,6-dichlorobenzamido)-1H-pyrazole-3-carboxamide] |  | 30 nM |  |  | 154 nM |  | 
23 | CN(C)C/C=C/C(=O)Nc1cccc(C(=O)N2CCC[C@@H](NC(=O)c3n[nH]cc3NC(=O)c3c(Cl)cccc3Cl)C2)c1 [FMF-04-059-2, (R,E)-4-(2,6-dichlorobenzamido)-N-(1-(3-(4-(dimethylamino)but-2-enamido)benzoyl)piperidin-3-yl)-1H-pyrazole-3-carboxamide] |  | > 10000 nM |  |  | > 1000 nM |  | 
24 | C=CC(=O)Nc1ccc(C(=O)N2CCC[C@@H](NC(=O)c3n[nH]cc3NC(=O)c3c(Cl)cccc3Cl)C2)cc1 [FMF-04-058-1, (R)—N-(1-(4-acrylamidobenzoyl)piperidin-3-yl)-4-(2,6-dichlorobenzamido)-1H-pyrazole-3-carboxamide] |  | > 10000 nM |  |  | > 1000 nM |  | 
25 | CN(C)C/C=C/C(=O)Nc1ccc(N2CC[C@H](NC(=O)c3n[nH]cc3NC(=O)c3c(Cl)cccc3Cl)C2)cc1 [FMF-05-074-2, (S,E)-4-(2,6-dichlorobenzamido)-N-(1-(4-(4-(dimethylamino)but-2-enamido)phenyl)pyrrolidin-3-yl)-1H-pyrazole-3-carboxamide] |  | > 10000 nM |  |  | 116 nM |  | 
26 | Cc1cc(NC(=O)c2cccc(NC(=O)/C=C/CN(C)C)c2)ccc1NC(=O)c1n[nH]cc1NC(=O)c1c(Cl)cccc1Cl [FMF-04-085-2, (E)-4-(2,6-dichlorobenzamido)-N-(4-(3-(4-(dimethylamino)but-2-enamido)benzamido)-2-methylphenyl)-1H-pyrazole-3-carboxamide] |  | 320 nM |  |  | 1160 nM |  | 
